Patent US5190922A (priority 1991, dated 1993)
Non-standard residues stand in square brackets, D forms with d. Residues, ends and D or L forms follow the SMILES beside them. ξ: configuration not given here. *: point of attachment. X10 = N=C(N)NCCCCN(C[C@H](CC1CCCCC1)N*)C(=O)Cc1ccccc1; Butanoyl(3S-Ph) = C[C@@H](CC(=O)*)c1ccccc1; X6 = N#CC(Cc1ccccc1)(Cc1ccccc1)C(=O)*; NHCH2(2-pyridyl) = c1ccc(CN*)nc1; NMeF = CN[C@@H](Cc1ccccc1)C(=O)O; X11 = O=[N+]([O-])c1cccc(CN*)c1; Cha = N[C@@H](CC1CCCCC1)C(=O)O; dCha = N[C@H](CC1CCCCC1)C(=O)O; Phe(ol) = N[C@H](CO)Cc1ccccc1; X9 = CC[C@H](C(=O)*)c1ccccc1; X2 = N#CC(Cc1ccccc1)C(=O)*; ξCha = NC(CC1CCCCC1)C(=O)O; 4Amb = NCc1ccc(C(=O)O)cc1; X8 = c1ccc(C2(CN*)CC2)cc1; X7 = O=C(C(CO)c1ccccc1)*; X4 = NCCCN(CCc1ccccc1)*; NH(CH2)5NH2 = NCCCCCN*; OBn = c1ccc(CO*)cc1; X5 = c1ccc(NN*)cc1; X3 = N=C(N)NCCCN*; X1 = N#CCCN*

Target: T1, C5a Receptor (Homo sapiens, UniProt P21730)
T1 construct: 2.5-25 μg/mL of purified PMNL membrane fragments; from tissue; host or cells: polymorphonuclear leukocyte (PMNL) membrane fragments
T1 sequence (P21730 1-350): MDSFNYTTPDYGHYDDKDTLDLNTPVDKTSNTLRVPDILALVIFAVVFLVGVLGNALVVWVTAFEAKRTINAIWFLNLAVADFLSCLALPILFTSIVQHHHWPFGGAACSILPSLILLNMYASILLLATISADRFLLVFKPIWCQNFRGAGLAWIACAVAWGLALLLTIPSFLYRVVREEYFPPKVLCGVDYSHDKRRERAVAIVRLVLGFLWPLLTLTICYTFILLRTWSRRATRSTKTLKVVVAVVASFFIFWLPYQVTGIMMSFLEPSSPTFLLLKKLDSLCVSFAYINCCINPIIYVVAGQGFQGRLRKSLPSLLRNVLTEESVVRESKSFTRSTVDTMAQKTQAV
Test: Anaphylatoxin receptor binding Ki determination (inhibition of 125I-C5a binding to PMNL membrane fragments)
Conditions: not given
Method: Specific inhibition of C5 a binding activity of representative compounds of the present invention was measured using 0.03-1 nM ^125 I-C5 a with 2.5-25 μg/mL of purified PMNL membrane fragments (Borregaard, N.; Heiple, J. M.; Simons, E. R.; and Clark, R. A. J. Cell. Biol. 1983, 97, 52-61.). Free and membrane-bound ligand were separated by filtration.

| Compound | Ki [nM] |
| --- | --- |
| CN[C@@H](Cc1ccccc1)C(=O)N[C@@H](CCCCN)C(=O)N1CCC[C@H]1C(=O)N[C@H](CC1CCCCC1)C(=O)N[C@@H](Cc1ccccc1)C(=O)NCCCNC(=N)N [Example 201, (N-Methyl)Phenylalanyl-Lysyl-Prolyl-{(2R)-2-Amino-3-cyclohexylpropanoyl}-Phenylalanyl-N-(3-Guanidinopropyl)amide] (H-[NMeF]KP[dCha]F-X3) | 690 |
| CN[C@@H](Cc1ccccc1)C(=O)N[C@@H](CCCCN)C(=O)N1CCC[C@H]1C(=O)N[C@H](CC1CCCCC1)C(=O)N[C@@H](Cc1ccccc1)C(=O)NCC1(c2ccccc2)CC1 [Example 100, (N-Methyl)Phenylalanyl-Lysyl-Prolyl-{(2R)-2-Amino-3-cyclohexylpropanoyl}-Phenylalanyl-N-{(1-Phenyl)cyclopropylmethyl}amide] (H-[NMeF]KP[dCha]F-X8) | 91 |
| CN[C@@H](Cc1ccccc1)C(=O)N[C@@H](CCCCN)C(=O)N1CCC[C@H]1C(=O)N[C@H](CC1CCCCC1)C(=O)N[C@@H](Cc1ccccc1)C(=O)NCc1ccc(C(=O)O)cc1 [Example 177, (N-Methyl)Phenylalanyl-Lysyl-Prolyl-{(2R)-2-Amino-3-cyclohexylpropanoyl}-Phenylalanyl-N-(4-Carboxybenzyl)amide] (H-[NMeF]KP[dCha]F[4Amb]-OH) | 38700 |
| N#CC(Cc1ccccc1)C(=O)N[C@@H](CCCCN)C(=O)N1CCC[C@H]1C(=O)N[C@H](CC1CCCCC1)C(=O)N[C@@H](Cc1ccccc1)C(=O)N[C@H](CCCNC(=N)N)C(=O)O (stereo partly drawn) [Example 99, {(2RS)-2-Cyano-3-phenylpropionyl}-Lysyl-Prolyl-{(2R)-2-Amino-3-cyclohexylpropanoyl}-Phenylalanyl-DArginyl-OH] (X2-KP[dCha]F[dR]-OH) | 120 |
| CN[C@@H](Cc1ccccc1)C(=O)N[C@@H](CCCCN)C(=O)N1CCC[C@H]1C(=O)N[C@H](CC1CCCCC1)C(=O)N[C@@H](CC1CCCCC1)C(=O)NNc1ccccc1 [Example 163, (N-Methyl)Phenylalanyl-Lysyl-Prolyl-{(2R)-2-Amino-3-cyclohexylpropanoyl}-{(2S)-2-Amino-3-cyclohexylpropanoyl}-N-(N'-Phenyl)hydrazide] (H-[NMeF]KP[dCha][Cha]-X5) | 140 |
| CN[C@@H](Cc1ccccc1)C(=O)N[C@@H](CCCCN)C(=O)N1CCC[C@H]1C(=O)N[C@H](CC1CCCCC1)C(=O)N[C@@H](CC1CCCCC1)CN(CCCCNC(=N)N)C(=O)Cc1ccccc1 [Example 78, N-(4-Guanidinobutyl)-N-[(N-Methyl)Phenylalanyl-Lysyl-Prolyl-{(2R)-2-Amino-3-cyclohexylpropanoyl}-{(2S)-2-Amino-3-cyclohexylpropyl}]-N-Phenylacetamide] (H-[NMeF]KP[dCha]-X10) | 680 |

Same assay, conditions: 0.03-1 nM 125I-C5a, 2.5-25 μg/mL purified PMNL membrane fragments, filtration; read-out: Ki (In vitro C5a Receptor Binding Potency)

| Compound | Ki [nM] |
| --- | --- |
| N=C(N)NCCC[C@@H](NC[C@H](Cc1ccccc1)NC(=O)[C@@H](CC1CCCCC1)NC(=O)[C@@H]1CCCN1C(=O)[C@H](CCCCN)NC(=O)CCCCc1ccccc1)C(=O)O [Example 202, {5-Phenylvaleryl}-Lysyl-Prolyl -{(2R)-2-Amino-3-cyclohexylpropanoyl}-Phenylalanyl-.PSI.(CH2 NH)-DArginyl-OH] | 52000 |
| N#CC(Cc1ccccc1)(Cc1ccccc1)C(=O)N[C@@H](CCCCN)C(=O)N1CCC[C@H]1C(=O)N[C@H](CC1CCCCC1)C(=O)N[C@@H](Cc1ccccc1)C(=O)N[C@H](CCCNC(=N)N)C(=O)O [Example 88, {2-Benzyl-2-cyano-3-phenylpropionyl}-Lysyl-Prolyl-{(2R)-2-Amino-3-cyclohexylpropanoyl}-Phenylalanyl-DArginyl-OH] (X6-KP[dCha]F[dR]-OH) | 670 |
| N=C(N)NCCC[C@@H](NC(=O)[C@H](Cc1ccccc1)NC(=O)[C@@H](CC1CCCCC1)NC(=O)[C@@H]1CCCN1C(=O)[C@H](CCCCN)NC(=O)C(CO)c1ccccc1)C(=O)O (stereo partly drawn) [Example 8, {(2R/S)-2-Hydroxymethyl-2-phenylacetyl}-Lysyl-Prolyl-{(2R)-2-Amino-3-cyclohexylpropanoyl}-Phenylalanyl-DArginyl-OH] (X7-KP[dCha]F[dR]-OH) | 6200 |
| C[C@@H](CC(=O)N[C@@H](CCCCN)C(=O)N1CCC[C@H]1C(=O)N[C@H](CC1CCCCC1)C(=O)N[C@@H](CC1CCCCC1)C(=O)N[C@H](CCCNC(=N)N)C(=O)O)c1ccccc1 [Example 57, {S(+)-3-Phenylbutyryl}-Lysyl-Prolyl-{(2R)-2-Amino-3-cyclohexylpropanoyl}-{(2S)-2-Amino-3-cyclohexylpropanoyl}-DArginyl-OH] ({Butanoyl(3S-Ph)}-KP[dCha][Cha][dR]-OH) | 27 |
| CN[C@@H](Cc1ccccc1)C(=O)N[C@@H](CCCCN)C(=O)N1CCC[C@H]1C(=O)N[C@H](CCCNC(=N)N)C(=O)N[C@@H](Cc1ccccc1)C(=O)NCc1ccccn1 [Example 199, (N-Methyl)Phenylalanyl-Lysyl-Prolyl-DArginyl-Phenylalanyl-N-(2-Picolyl)amide] (H-[NMeF]KP[dR]F-{NHCH2(2-pyridyl)}) | 8400 |
| CC[C@H](C(=O)N[C@@H](CCCCN)C(=O)N1CCC[C@H]1C(=O)N[C@H](CC1CCCCC1)C(=O)N[C@@H](CC1CCCCC1)C(=O)N[C@H](CCCNC(=N)N)C(=O)O)c1ccccc1 [Example 2, (S)-(+)-2-phenylbutyryl-Lysyl-Prolyl-{(2R)-2-Amino-3-cyclohexylpropanoyl}-{(2S)-2-Amino-3-cyclohexylpropanoyl}-DArginyl-OH] (X9-KP[dCha][Cha][dR]-OH) | 14 |
| CN[C@@H](Cc1ccccc1)C(=O)N[C@@H](CCCCN)C(=O)N1CCC[C@H]1C(=O)N[C@H](CC1CCCCC1)C(=O)N[C@@H](CC1CCCCC1)C(=O)NCc1cccc([N+](=O)[O-])c1 [Example 114, (N-Methyl)Phenylalanyl-Lysyl-Prolyl-{(2R)-2-Amino-3-cyclohexylpropanoyl}-{(2S)-2-Amino-3-cyclohexylpropanoyl}-N-(3-Nitrobenzyl)amide] (H-[NMeF]KP[dCha][Cha]-X11) | 130 |
| CN[C@@H](Cc1ccccc1)C(=O)N[C@@H](CCCCN)C(=O)N1CCC[C@H]1C(=O)N[C@H](CC1CCCCC1)C(=O)N[C@H](CO)Cc1ccccc1 [Example 119, (N-Methyl)Phenylalanyl-Lysyl-Prolyl-{(2R)-2-Amino-3-cyclohexylpropanoyl}-{(S)-(-)-2-Amino-3-phenyl-1-propanol}] (H-[NMeF]KP[dCha][Phe(ol)]) | 780 |
| CN[C@@H](Cc1ccccc1)C(=O)N[C@@H](CCCCN)C(=O)N1CCC[C@H]1C(=O)N[C@H](CC1CCCCC1)C(=O)N[C@@H](CC1CCCCC1)C(=O)NCCCNC(=N)N [Example 55, (N-Methyl)Phenylalanyl-Lysyl-Prolyl-{(2R)-2-Amino-3-cyclohexylpropanoyl}-{(2S)-2-Amino-3-cyclohexylpropanoyl}-N-(3-Guanidinopropyl)amide] (H-[NMeF]KP[dCha][Cha]-X3) | 7 |
| CN[C@@H](Cc1ccccc1)C(=O)N[C@@H](CCCCN)C(=O)N1CCC[C@H]1C(=O)N[C@H](CC1CCCCC1)C(=O)N(CCCN)CCc1ccccc1 [Example 225, (N-Methyl)Phenylalanyl-Lysyl-Prolyl-{(2R)-2-Amino-3-cyclohexylpropanoyl}-N-3-Aminopropyl-N-2-Phenethylamide] (H-[NMeF]KP[dCha]-X4) | 46000 |
| CN[C@@H](Cc1ccccc1)C(=O)N[C@@H](CCCCN)C(=O)N1CCC[C@H]1C(=O)N[C@H](CC1CCCCC1)C(=O)N[C@@H](CC1CCCCC1)C(=O)NCCCCCN [Example 30, (N-Methyl)Phenylalanyl-Lysyl-Prolyl-{(2R)-2-Amino-3-cyclohexylpropanoyl}-{(2S)-2-Amino-3-cyclohexylpropanoyl}-N-(5-Aminopentyl)amide] (H-[NMeF]KP[dCha][Cha]-{NH(CH2)5NH2}) | 2200 |
| CN[C@@H](Cc1ccccc1)C(=O)N[C@@H](CCCCN)C(=O)N1CCC[C@H]1C(=O)N[C@H](CC1CCCCC1)C(=O)NC(CC1CCCCC1)C(=O)OCc1ccccc1 (stereo partly drawn) [Example 159, (N-Methyl)Phenylalanyl-Lysyl-Prolyl-{(2R)-2-Amino-3-cyclohexylpropanoyl}-{(2R/S)-2-Amino-3-cyclohexylpropanoyl}O-Benzyl] (H-[NMeF]KP[dCha][ξCha]-OBn) | 980 |
| N=C(N)NCCC[C@@H](NC(=O)[C@H](CC1CCCCC1)NC(=O)[C@@H](CC1CCCCC1)NC(=O)[C@@H]1CCCN1C(=O)[C@H](CCCCN)NC(=O)C(Cc1ccccc1)C(=O)O)C(=O)O (mixture of isomers) [Example 149, {(R/S)-(2-Carboxyl)-3-phenylpropionyl}-Lysyl-Prolyl-{(2R)-2-Amino-3-cyclohexylpropanoyl}-{(2S)-2-Amino-3-cyclohexylpropanoyl}-DArginyl-OH] | 22 |
| CN[C@@H](Cc1ccccc1)C(=O)N[C@@H](CCCCN)C(=O)N1CCC[C@H]1C(=O)N[C@H](CC1CCCCC1)C(=O)N1CCN(Cc2ccccc2)CC1 [Example 117] | 110000 |
| CN[C@@H](Cc1ccccc1)C(=O)N[C@@H](CCCCN)C(=O)N1CCC[C@H]1C(=O)N[C@H](CC1CCCCC1)C(=O)N[C@@H](CC1CCCCC1)C(=O)NCCC#N [Example 223, (N-Methyl)Phenylalanyl-Lysyl-Prolyl-{(2R)-2-Amino-3-cyclohexylpropanoyl}-{(2S)-2-Amino-3-cyclohexylpropanoyl}-N-(2-Cyanoethyl)amide] (H-[NMeF]KP[dCha][Cha]-X1) | 1200 |
